Measured values taken from patent US9988423B2, “Organogels and emulsions for biological and non-biological applications” (Agency for Science, Technology and Research, priority 2012, dated 2018).
Residues, ends and D or L forms follow the SMILES beside them. No end group written: not given here.

What was measured:
[1] = Stability of peptide emulsions in oil:water mixtures (phase separation); type: physicochemical; details: 7.5 mg/ml peptide in oil:water 50:50, 80:20, 20:80; in comparison to controls
Description: 7.5 mg/ml Ac-IVD-COOH (L) were dissolved in solvent mixtures of oil:water (50:50, 80:20, 20:80).

[2] = Organogel formation (gelation) of peptides in organic solvents; type: physicochemical
Description: The exemplary peptides are Ac-ID-COOH (L) (dimer), Ac-IVD-COOH (L) (trimer) and Ac-LIVAGD-COOH (L) (hexamer). The organogels depicted in (C) are (1) Ac-ID-COOH (L) 10 mg/ml in ethyl acetate, (2) Ac-ID-COOH (L) 10 mg/ml in toluene, (3) Ac-IVD-COOH (L) 2 mg/ml in acetonitrile, (4) Ac-IVD-COOH (L) 2 mg/ml in ethyl acetate, (5) Ac-IVD-COOH (L) 5 mg/ml in acetone, (6) Ac-LIVAGD-COOH (L) 5 mg/ml in toluene, and (7) Ac-LIVAGD-COOH (L) 10 mg/ml in ethyl acetate.
The organogels depicted in (B) are (1) Ac-IVF-COOH (L) 5 mg/ml in ethyl acetate, (2) Ac-IVF-COOH (L) 5 mg/ml in acetone, (3) Ac-IVF-COOH (L) 5 mg/ml in acetonitrile, (4) Ac-IVF-COOH (L) 5 mg/ml in chloroform, (5) Ac-IVW-COOH (L) 5 mg/ml in acetone, (6) Ac-IVW-COOH (L) 5 mg/ml in ethyl acetate, and (7) Ac-LIVAGF-COOH (L) 5 mg/ml in acetone.
Gels with increasing concentration of Ac-IVD-COOH (L) were prepared in ethyl acetate. […] Organogels of 2 mg/ml and 5 mg/ml Ac-IVD-COOH (L) in ethyl acetate were analyzed by field emission scanning electron microscopy (FESEM). FIGS. 3B and 3C show the effect of the peptide concentration on organogelation for the hexamer Ac-LIVAGD-COOH (L) in acetonitrile or ethyl acetate.
The formulation of the peptide organogels depends on several factors, such as peptide concentration, polarity of the organic solvent, peptide sequence and type of solvent used (see FIG. 3 as well as FIGS. 10A-G and 11). For example, increasing the peptide concentration reduced the gelation time for the formulation of peptide organogels. Based on the experimental data disclosed herein and his general knowledge, a person skilled in the art would have no problems in figuring out suitable gelation conditions (e.g. a suitable organic solvent) for a given peptide. For example, a skilled person knows about the nature of an organic solvent with respect to its polarity or non-polarity. […] Obviously, there is interaction with the polar head group of the peptide. […] Also, it seems that planar configurations (benzene ring, C═O, nitrile) within the solvent helps to stabilize the gel. This might be explained with a more favourable interaction of p-, sp^2-, or sp-orbitals.

| Compound | phase separation of emulsion [1] | effect of peptide concentration on organogelation ([2]; in ethyl acetate, concentrations above 10 mg/ml (1% w/v)) | organogel formation in organic solvents [2] | preferred gelation solvent ([2]; screening for quantum dot loading) | effect of peptide concentration on organogelation ([2]; in acetonitrile, increasing concentration 1-20 mg/ml) | effect of peptide concentration on organogelation ([2]; in ethyl acetate, increasing concentration 5, 10, 20 mg/ml) |
| --- | --- | --- | --- | --- | --- | --- |
| CC[C@H](C)[C@H](NC(C)=O)C(=O)N[C@H](C(=O)N[C@@H](CC(=O)O)C(=O)O)C(C)C [Ac-IVD-COOH (L)] (Ac-Ile-Val-Asp-OH) | No phase separation | only partial gelation | formed organogels | gelled preferably in ethyl acetate |  |  |
| CC[C@H](C)[C@H](NC(C)=O)C(=O)N[C@H](C(=O)N[C@@H](Cc1ccccc1)C(=O)O)C(C)C [Ac-IVF-COOH (L)] |  |  | formed organogels |  |  |  |
| CC[C@H](C)[C@H](NC(C)=O)C(=O)N[C@H](C(=O)N[C@@H](Cc1c[nH]c2ccccc12)C(=O)O)C(C)C [Ac-IVW-COOH (L)] (Ac-Ile-Val-Trp-OH) |  |  | formed organogels |  |  |  |
| Ac-LIVAGD [Ac-LIVAGD-COOH (L)] |  |  | formed organogels |  | increased size of the organogel | partial gelation |
